Reference: patent US20230135093A1, “TRIAZOLYL DERIVATIVES AS GABA A ALPHA5 PAM” (Hoffmann-La Roche Inc., priority 2020, published 2023)

Assays:
h-GABA-A α5β3γ2 [1] = biological target: T1, h-GABA-A α5β3γ2 (Homo sapiens, UniProt P18507+P31644); assay: Two-electrode voltage clamp electrophysiology in Xenopus oocytes expressing GABAA receptors (modulation of GABA EC20 current); type: cell-based; conditions: Table 1; for Efficacy (GABA) %: % modulation of GABA EC20 = 100*(Fold increase-1); for Fold increase h-GABA-A α5β3γ2 oocyte: Xenopus oocytes, GABA EC20, test compound at approximatively 30 fold its Ki
T1 construct: expressed in transfected cells; host or cells: Xenopus laevis oocytes, micro-injected with subunit RNA
Outline: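 Oocytes injected with α5β3γ2 subunit RNA, recorded 3-5 days later by two-electrode clamp at −80 mV, room temperature, pH 7.4. The compound, at ~30-fold its Ki, was co-applied during a second GABA EC20 pulse. Efficacy was the extremum of the point-by-point second/first current ratio, given as % modulation (100×(fold−1)); n≥3 oocytes.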

h-GABA-A α5β3γ2 [2] = biological target: T1, h-GABA-A α5β3γ2; assay: [3H]flumazenil competition binding assay on membranes of HEK293 cells expressing GABAA receptors; conditions: Table 1; displacement of [3H]-Flumazenil (0.5 nM), HEK293 cells expressing human receptors, means of two determinations
Outline: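 Membranes from HEK293 cells transiently expressing human α5β3γ2 were incubated 1 h at 4 °C in Krebs-tris pH 7.5 with 0.5 nM [3H]flumazenil and test compound. Nonspecific binding was set with 10^−5 M diazepam. Bound radioactivity was filtered and counted. Ki is the mean of two determinations.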

SMILES	Efficacy (GABA) % (h-GABA-A α5β3γ2 [1])	Fold increase h-GABA-A α5β3γ2 oocyte (h-GABA-A α5β3γ2 [1])	Ki (h-GABA-A α5β3γ2 [2])
Cn1nnc(-c2ccc(Cl)cc2F)c1Cn1ncc(N2CC3(CCCCO3)C2)cc1=O [Example 95, 2-[[5-(4-chloro-2-fluoro-phenyl)-3-methyl-triazol-4-yl]methyl]-5-(5-oxa-2-azaspiro[3.5]nonan-2-yl)pyridazin-3-one]	58%	1.58	11.1 nM
Cn1nnc(-c2ccc(Cl)cc2F)c1Cn1ncc(N2CC(OC(C)(C)C)C2)cc1=O [Example 96, 5-(3-tert-butoxyazetidin-1-yl)-2-[[5-(4-chloro-2-fluoro-phenyl)-3-methyl-triazol-4-yl]methyl]pyridazin-3-one]	54%	1.54	20.4 nM
CCn1nnc(-c2ccc(Cl)cc2F)c1Cn1ncc(N2CC(OC(C)(C)C)C2)cc1=O [Example 97, 5-(3-tert-butoxyazetidin-1-yl)-2-[[5-(4-chloro-2-fluoro-phenyl)-3-ethyl-triazol-4-yl]methyl]pyridazin-3-one]	115%	2.15	45.1 nM
Cn1nnc(-c2ccc(Cl)cc2F)c1Cn1ncc(N2CC(Oc3ccnc(C(F)(F)F)n3)C2)cc1=O [Example 100, 2-[[5-(4-chloro-2-fluoro-phenyl)-3-methyl-triazol-4-yl]methyl]-5-[3-[2-(trifluoromethyl)pyrimidin-4-yl]oxyazetidin-1-yl]pyridazin-3-one]	79%	1.79	15.9 nM
CCn1nnc(-c2ccc(Cl)cc2F)c1Cn1ncc(N2CC(Oc3cccnn3)C2)cc1=O [Example 102, 2-[[5-(4-chloro-2-fluoro-phenyl)-3-ethyl-triazol-4-yl]methyl]-5-(3-pyridazin-3-yloxyazetidin-1-yl)pyridazin-3-one]	164%	2.64	20.2 nM
COc1ncc(-c2cnn(Cc3c(-c4ccc(Cl)cc4F)nnn3C)c(=O)c2)cc1C [Example 104, 2-((5-(4-chloro-2-fluoro-phenyl)-3-methyl-triazol-4-yl)methyl)-5-(6-methoxy-5-methyl-3-pyridyl)pyridazin-3-one]	158%	2.58	11.8 nM
CCn1nnc(-c2ccc(Cl)cc2F)c1Cn1ncc(-c2cnn(C3CC3)c2)cc1=O [Example 105, 2-((4-(4-chloro-2-fluorophenyl)-1-ethyl-1H-1,2,3-triazol-5-yl)methyl)-5-(1-cyclopropyl-1H-pyrazol-4-yl)pyridazin-3(2H)-one]	111%	2.11	17.2 nM
Cn1nnc(-c2ccc(Cl)cc2F)c1Cn1ncc(-c2cnn(CC(F)F)c2)cc1=O [Example 106, 2-((5-(4-chloro-2-fluoro-phenyl)-3-methyl-triazol-4-yl)methyl)-5-(1-(2,2-difluoro-ethyl)pyrazol-4-yl)pyridazin-3-one]	72%	1.72	11.4 nM
COc1cc(-c2cnn(Cc3c(-c4ccc(Cl)cc4F)nnn3C)c(=O)c2)cnc1Cl [Example 108, 2-((5-(4-chloro-2-fluoro-phenyl)-3-methyl-triazol-4-yl)methyl)-5-(6-chloro-5-metlioxy-3-pyridyl)pyridazin-3-one]	46%	1.46	16.8 nM
CCn1nnc(-c2ccc(Cl)cc2F)c1Cn1ncc(-c2cccc(C#N)n2)cc1=O [Example 111, 6-(1-((4-(4-chloro-2-fluorophenyl)-1-ethyl-1H-1,2,3-triazol-5-yl)methyl)-6-oxo-1,6-dihydropyridazin-4-yl)picolinonitrile]	290%	3.9	23.8 nM
C[C@@H]1CN(c2cnn(Cc3c(-c4ccc(Cl)nc4)nnn3C)c(=O)c2)C[C@H](C)O1 [Example 112, 2-[[5-(6-chloro-3-pyridyl)-3-methyl-triazol-4-yl]methyl]-5-[(2S,6R)-2,6-dimethylmorpholin-4-yl]pyridazin-3-one]	228%	3.28	12.8 nM

The next compounds have a lower Ki (h-GABA-A α5β3γ2 [2]) than those just listed; values first:

Efficacy (GABA) % (h-GABA-A α5β3γ2 [1])	Fold increase h-GABA-A α5β3γ2 oocyte (h-GABA-A α5β3γ2 [1])	Ki (h-GABA-A α5β3γ2 [2])	SMILES
127%	2.27	10.4 nM	CC(C)N1CCN(c2cnn(Cc3c(-c4ccc(C(F)(F)F)cc4F)nnn3C)c(=O)c2)C[C@@H]1C [Example 94, 2-[[5-[2-fluoro-4-(trifluoromethyl)phenyl]-3-methyl-triazol-4-yl]methyl]-5-[(3S)-4-isopropyl-3-methyl-piperazin-1-yl]pyridazin-3-one]
58%	1.58	8 nM	Cn1nnc(-c2ccc(Cl)cc2F)c1Cn1ncc(N2CC(Oc3cncc(C(F)(F)F)n3)C2)cc1=O [Example 98, 2-[[5-(4-chloro-2-fluoro-phenyl)-3-methyl-triazol-4-yl]methyl]-5-[3-[6-(trifluoro-methyl)pyrazin-2-yl]oxyazetidin-1-yl]pyridazin-3-one]
86%	1.86	4.6 nM	Cc1nccc(OC2CN(c3cnn(Cc4c(-c5ccc(Cl)cc5F)nnn4C)c(=O)c3)C2)n1 [Example 99, 2-[[5-(4-chloro-2-fluoro-phenyl)-3-methyl-triazol-4-yl]methyl]-5-[3-(2-methylpyrimidin-4-yl)oxyazetidin-1-yl]pyridazin-3-one]
126%	2.26	9.2 nM	CCn1nnc(-c2ccc(Cl)cc2F)c1Cn1ncc(N2CC(Oc3ccc(Cl)nc3)C2)cc1=O [Example 101, 2-[[5-(4-chloro-2-fluoro-phenyl)-3-ethyl-triazol-4-yl]methyl]-5-[3-[(6-chloro-3-pyridyl)oxy]azetidin-1-yl]pyridazin-3-one]
106%	2.06	10.4 nM	CCOc1ccc(-c2cnn(Cc3c(-c4ccc(Cl)cc4F)nnn3C)c(=O)c2)cn1 [Example 103, 2-((5-(4-chloro-2-fluoro-phenyl)-3-methyl-triazol-4-yl)methyl)-5-(6-ethoxy-3-pyridyl)pyridazin-3-one]
234%	3.34	9 nM	Cn1nnc(-c2ccc(Cl)cc2F)c1Cn1ncc(-c2cccc(C#N)n2)cc1=O [Example 107, 6-(1-((5-(4-chloro-2-fluoro-phenyl)-3-methyl-triazol-4-yl)methyl)-6-oxo-pyridazin-4-yl)pyridine-2-carbonitrile]
75%	1.75	1.1 nM	C[C@@H]1CCCN1c1cnn(Cc2c(-c3ccc(Cl)nc3)nnn2C)c(=O)c1 [Example 109, 2-[[5-(6-chloro-3-pyridyl)-3-methyl-triazol-4-yl]methyl]-5-[(2R)-2-methylpyrrolidin-1-yl]pyridazin-3-one]
139%	2.39	8.8 nM	CCn1nnc(-c2ccc(Cl)cc2F)c1Cn1ncc(-c2cnc(OC)c(Cl)c2)cc1=O [Example 110, 2-((4-(4-chloro-2-fluorophenyl)-1-ethyl-1H-1,2,3-triazol-5-yl)methyl)-5-(5-chloro-6-methoxypyridin-3-yl)pyridazin-3(2H)-one]
